One may read the solubility as how much of the substance goes into solution per volume.

Values after ≈ are worked out from the molar mass of the structure shown.

MIC and solubility data for eight compounds are collected here from patent publication US9181234B2, “Antibacterial compounds” (priority 2010, dated 2015).

The test system of series [1] is Staphylococcus aureus (Isolate ID ATCC 29213). As to the kind of experiment: Antibacterial activity, MIC, S. aureus. It counts as cell-based. The note with it: Staphylococcus aureus, ATCC29213, Gram positive strain; broth microdilution or agar dilution. The procedure:
(§1) Bacterial Assay: Determination of Antibacterial Activity
(§2) Compounds of the invention were tested for antimicrobial activity by susceptibility testing in liquid or on solid media. MICs for compounds against each strain were determined by the broth microdilution or agar dilution method according to the guidelines of the Clinical Laboratories and Standards Institute, formerly the National Committee for Clinical Laboratory Standards (Clinical Laboratories and Standards Institute. Methods for Dilution Antimicrobial Susceptibility Tests for Bacteria That Grow Aerobically; Approved Standard—Seventh Edition. Document M7-A7. CLSI, Wayne, Pa., 2006; Clinical Laboratories and Standards Institute. The gram positive bacterial strains tested include S. aureus (Staphylococcus aureus (Isolate ID ATCC 29213)), E. faecalis (Enterococcus faecalis (Isolate ID ATCC 29212)) and S. pyogenes (Streptococcus pyogenes (Isolate ID ATCC 51339)). The gram negative bacterial strains tested include H. influenzae (Haemophilus influenzae (Isolate ID ATCC 49247))

Another series is described as follows: physchem. The conditions noted are these: kinetic from dmso stock. The procedure: Turbimetric Assay: Determination of Solubility
The solubility of the compounds was measured using a turbidimetric method. A series of doubling dilutions of compounds were prepared in neat dimethyl sulfoxide (DMSO). 5 μl samples were diluted twenty-fold into 95 μl volumes of 100 mM citrate buffer (pH 4), phosphate buffered saline (PBS, pH 7.4) or carbonate-bicarbonate buffer (pH 9) in microtitre assay plates and allowed to reach equilibrium at room temperature for 24 hours. The absorbance within each well of the plate was read spectrophotometrically at a wavelength of 620 nm. A precipitate forms when the maximum aqueous solubility level is reached. The value quoted is the highest concentration where the compound was in solution i.e. where no measurable precipitate was present. […] ND=not determined

Series [2] concerns Haemophilus influenzae (Isolate ID ATCC 49247). The series is described as follows: Antibacterial activity, MIC, H. influenzae. It counts as cell-based. The note with it: Haemophilus influenzae, ATCC49247; Gram negative strain; broth microdilution or agar dilution. The procedure: as §1, §2
On the technique in general: Broth dilution looks for growth in wells or tubes with falling amounts of substance.

Series [3] deals with Streptococcus pyogenes (Isolate ID ATCC 51339). As to the kind of experiment: Antibacterial activity, MIC, S. pyogenes. The format is cell-based. The note with it: Streptococcus pyogenes, ATCC51339, Gram positive strain; broth microdilution or agar dilution. The procedure:
as §1, §2

The mark [4] stands for this setting: pH 7.4, aqueous buffer, Solubility (pH 7.4).
Where [5] appears, read: pH 7.4, aqueous buffer, Solubility Range.
The mark [6] stands for this setting: pH 9, aqueous buffer, Max Solubility.
Setting [7] is: pH 9, aqueous buffer, Solubility Range (maximum solubility).
[8] abbreviates: pH 7.4, aqueous buffer, Max Solubility.
The mark [9] stands for this setting: pH 7.4, aqueous buffer, Solubility Range (maximum solubility).

Turning to `CCNC(=O)Nc1nc2cc(-c3ccnc(N4CCC(C)(C(=O)O)CC4)c3)cc(-c3ccccn3)c2s1` [Compound 182], the figures for the MIC in series [1], in series [2] and in series [3] were 1 to 16 µg/mL (≈ 1.94 to 31 µM), over 16 µg/mL and at most 0.25 µg/mL, respectively. Further, the solubility at 24 h in the series “physchem” (setting [4]) was 200 µg/mL (≈ 387 µM); in “physchem” (setting [5]), 12.5 to 400 µg/mL (≈ 24.2 to 774 µM); in the series “physchem” (setting [6]), at least 800 µg/mL; in the series “physchem” (setting [7]) it was over 800 µg/mL.
On to `CCNC(=O)Nc1nc2cc(-c3cnc(N4CCC(C)(C(=O)NS(C)(=O)=O)CC4)nc3)cc(-c3ccccn3)c2s1` [Compound 186], for which the MIC in series [1] was 1 to 16 µg/mL (≈ 1.68 to 26.9 µM); in series [2] it was 1 to 16 µg/mL (≈ 1.68 to 26.9 µM); in series [3], at most 0.25 µg/mL. Further, the solubility at 24 h is at least 800 µg/mL in “physchem” (setting [8]), at least 800 µg/mL in “physchem” (setting [4]), over 800 µg/mL in the series “physchem” (setting [5]) and over 800 µg/mL in “physchem” (setting [9]).
Consider `CCNC(=O)Nc1nc2cc(-c3cnc(N4CCC(C)(C(=O)O)CC4)nc3)cc(/C(C)=N/OCCO)c2s1` [Compound 187], for which the MIC is 1 to 16 µg/mL (≈ 1.85 to 29.5 µM) in series [1], 1 to 16 µg/mL (≈ 1.85 to 29.5 µM) in series [2] and 0.25 to 1 µg/mL (≈ 0.462 to 1.85 µM) in series [3]. For the same compound, the solubility at 24 h in the series “physchem” (setting [4]) was at least 800 µg/mL; in the series “physchem” (setting [5]), over 800 µg/mL; in the series “physchem” (setting [6]), at least 800 µg/mL; in “physchem” (setting [7]), over 800 µg/mL.
For `CCNC(=O)Nc1nc2cc(-c3cnc(N4CCC(C)(C(=O)O)CC4)nc3)cc(/C(C)=N/OCCOC)c2s1` [Compound 188], the MIC is 1 to 16 µg/mL (≈ 1.8 to 28.8 µM) in series [1], over 16 µg/mL in series [2] and 1 to 16 µg/mL (≈ 1.8 to 28.8 µM) in series [3]. Moreover, the solubility at 24 h is at least 800 µg/mL in “physchem” (setting [8]), at least 800 µg/mL in “physchem” (setting [4]), over 800 µg/mL in “physchem” (setting [5]) and over 800 µg/mL in the series “physchem” (setting [9]).
Take `CCNC(=O)Nc1nc2cc(-c3cnc4c(c3)OC(C)(C(=O)O)C(=O)N4)cc(-c3ccccn3)c2s1` (centres unmarked) [Compound 190, 7-[2-(ethylcarbamoylamino)-7-(2-pyridyl)-1,3-benzothiazol-5-yl]-2-methyl-3-oxo-4H-pyrido[3,2-b][1,4]oxazine-2-carboxylic acid]: the MIC in series [1] is 0.25 to 1 µg/mL (≈ 0.496 to 1.98 µM); in series [2] it was over 16 µg/mL; in series [3], 0.25 to 1 µg/mL (≈ 0.496 to 1.98 µM). Moreover, the solubility at 24 h in “physchem” (setting [8]) is 400 µg/mL (≈ 793 µM); in “physchem” (setting [4]) it was 400 µg/mL (≈ 793 µM); in the series “physchem” (setting [5]), 400 to 800 µg/mL (≈ 793 to 1590 µM); in “physchem” (setting [9]), 400 to 800 µg/mL (≈ 793 to 1590 µM).
For the compound `CCNC(=O)Nc1nc2cc(-c3cnc(N4CCC(C)(C(=O)OCC)CC4)nc3)c(OC)cc2s1` [Compound 191, Ethyl 1-[5-[2-(ethylcarbamoylamino)-6-methoxy-1,3-benzothiazol-5-yl]pyrimidin-2-yl]-4-methyl-piperidine-4-carboxylate], the MIC in series [1], in series [2] and in series [3] was 1 to 16 µg/mL (≈ 2.01 to 32.1 µM) throughout. For the same compound, the solubility at 24 h in “physchem” (setting [8]) is 6.25 µg/mL (≈ 12.5 µM); in “physchem” (setting [4]), 6.25 µg/mL (≈ 12.5 µM); in “physchem” (setting [5]), under 12.5 µg/mL; in the series “physchem” (setting [9]) it was under 12.5 µg/mL.
Take `CCNC(=O)Nc1nc2cc(-c3cnc(C(=O)N4CCC(C)(C(=O)O)CC4)nc3)cc(-c3ccccn3)c2s1` [Compound 192]: the MIC in series [1], in series [2] and in series [3] was 1 to 16 µg/mL (≈ 1.83 to 29.3 µM) throughout. Also, the solubility at 24 h in the series “physchem” (setting [8]) is at least 800 µg/mL; in the series “physchem” (setting [4]) it was at least 800 µg/mL; in “physchem” (setting [5]) it was over 800 µg/mL; in “physchem” (setting [9]) it was over 800 µg/mL.
`CCNC(=O)Nc1nc2cc(-c3cnc(N4CCC(CC)(C(=O)O)CC4)nc3)cc(C(N)=O)c2s1` [Compound 193, 1-[5-[7-carbamoyl-2-(ethylcarbamoylamino)-1,3-benzothiazol-5-yl]pyrimidin-2-yl]-4-ethyl-piperidine-4-carboxylic acid]: the MIC in series [1], in series [2] and in series [3] was 1 to 16 µg/mL (≈ 2.01 to 32.2 µM) throughout. In addition, the solubility at 24 h in the series “physchem” (setting [8]) is at least 800 µg/mL; in “physchem” (setting [4]), at least 800 µg/mL; in the series “physchem” (setting [5]) it was over 800 µg/mL; in the series “physchem” (setting [9]) it was over 800 µg/mL.
